Laboratory results from US20240116985A1, “STAPLED PEPTIDES AND METHODS THEREOF” (priority 2020, published 2024).

Assay: CHI Log D procedure
Assay type: physicochemical
Conditions: for CHI Log D: pH 7.4; for chromatographic logD: pH 7.4, CHI Log D

| Compound | CHI Log D | chromatographic logD |
| --- | --- | --- |
| CC[C@H](C)[C@H](NC(=O)[C@H](CC(=O)O)NC(=O)[C@H](C)NC(C)=O)C(=O)N[C@]1(C)CCN(C)C(=O)OCC=CCCCCC[C@@](C)(C(=O)N[C@@H](Cc2ccccc2)C(=O)N[C@@H](Cc2c[nH]c3ccccc23)C(=O)N[C@@H](C)C(N)=O)NC(=O)[C@H](C)NC(=O)[C@H](Cc2ccccc2)NC(=O)[C@H](C)NC(=O)[C@H](C)NC(=O)[C@H](CCC(=O)O)NC(=O)[C@H](CC(=O)O)NC1=O [I-154, Ac-Ala-Asp-Ile-RdN-Asp-Glu-Ala-Ala-Phe-Ala-S7-Phe-Trp-Ala-NH2] | 1.426 | – |
| CC(=O)N[C@@H](Cc1ccccc1)C(=O)N[C@@H](CC(=O)O)C(=O)N[C@]1(C)CCCCCCC=CCCC[C@@](C)(C(=O)N[C@@H](C)C(=O)N[C@@H](Cc2ccccc2)C(=O)N[C@@H](Cc2c[nH]c3ccccc23)C(=O)N[C@@H](CCC(N)=O)C(N)=O)NC(=O)[C@H](Cc2ccccc2)NC(=O)[C@H](C)NC(=O)[C@H](C)NC(=O)[C@H](CC(=O)O)NC(=O)[C@H](CC(=O)O)NC(=O)[C@H](C)NC1=O (single isomer, unassigned) [I-48, Ac-Phe-Asp-R8-Ala-Asp-Asp-Ala-Ala-Phe-S5-Ala-Phe-Trp-Gln-NH2] | 1.37 | – |
| CC(=O)N1CCC[C@]12CC=CCCCC1(CCCC=CCCCCCC[C@@](C)(C(=O)N[C@@H](Cc3ccccc3)C(=O)N[C@@H](Cc3c[nH]c4ccccc34)C(=O)N[C@@H](CCC(N)=O)C(N)=O)NC(=O)[C@H](C(C)C)NC(=O)[C@H](Cc3ccccc3)NC(=O)[C@H](C)NC(=O)[C@H](C)NC(=O)[C@H](CCC(=O)O)NC(=O)[C@H](CCc3ccccc3)NC1=O)NC(=O)[C@H](C)NC(=O)[C@H](CC(=O)O)NC2=O (stereo partly drawn) [I-196, Ac-PL3-Asp-Ala-B5-hPhe-Glu-Ala-Ala-Phe-Val-S8-Phe-Trp-Gln-NH2] | 3.711 | – |
| CC(=O)N1CCC[C@]12CC=CCCCC1(CCCC=CCCCCCC[C@@](C)(C(=O)N[C@@H](Cc3ccccc3)C(=O)N[C@@H](Cc3c[nH]c4ccccc34)C(=O)N[C@@H](CCC(N)=O)C(N)=O)NC(=O)[C@H](C(C)C)NC(=O)[C@H](Cc3ccccc3)NC(=O)[C@H](C)NC(=O)[C@H](C)NC(=O)[C@H](CCC(=O)O)NC(=O)[C@H](Cc3cccnc3)NC1=O)NC(=O)[C@H](C)NC(=O)[C@H](CC(=O)O)NC2=O (stereo partly drawn) [I-213, Ac-PL3-Asp-Ala-B5-3pyrA-Glu-Ala-Ala-Phe-Val-S8-Phe-Trp-Gln-NH2] | – | 2.82 |
| CC(=O)N[C@@H](Cc1ccccc1)C(=O)N[C@@H](CC(=O)O)C(=O)N[C@@H](C)C(=O)N[C@]1(C)CCCCCCC=CCOC(=O)N2CC[C@@](C(=O)N[C@@H](Cc3ccccc3)C(=O)N[C@@H](Cc3c[nH]c4ccccc34)C(=O)N[C@@H](CCC(N)=O)C(N)=O)(C2)NC(=O)[C@H](C(C)C)NC(=O)[C@H](Cc2ccccc2)NC(=O)[C@H](C)NC(=O)[C@H](C)NC(=O)[C@H](Cc2ccccc2)NC(=O)[C@H](CC(=O)O)NC1=O [I-100, Ac-Phe-Asp-Ala-R8-Asp-Phe-Ala-Ala-Phe-Val-PyrS-Phe-Trp-Gln-NH2] | 1.993 | – |
| CC(=O)N1CCC[C@]12CC=CCCCC1(CCCC=CCCCCCC[C@@](C)(C(=O)N[C@@H](Cc3ccccc3)C(=O)N[C@@H](Cc3c[nH]c4ccccc34)C(=O)N[C@@H](CCC(N)=O)C(N)=O)NC(=O)[C@H](C(C)C)NC(=O)[C@H](Cc3ccccc3)NC(=O)[C@H](C)NC(=O)[C@H](C)NC(=O)[C@H](CCC(=O)O)NC(=O)[C@H](Cc3ccncc3)NC1=O)NC(=O)[C@H](C)NC(=O)[C@H](CC(=O)O)NC2=O (stereo partly drawn) [I-214, Ac-PL3-Asp-Ala-B5-4pyrA-Glu-Ala-Ala-Phe-Val-S8-Phe-Trp-Gln-NH2] | – | 2.7 |
| CC(=O)N1CCC[C@]12CC=CCCCC1(CCCC=CCCCCCC[C@@](C)(C(=O)N[C@@H](Cc3ccccc3)C(=O)NC(Cc3cccc4cc(F)ccc34)C(=O)N[C@@H](CCC(N)=O)C(N)=O)NC(=O)[C@H](C(C)C)NC(=O)[C@H](Cc3ccccc3)NC(=O)[C@H](C)NC(=O)[C@H](C)NC(=O)[C@H](CCC(=O)O)NC(=O)[C@H](CC(=O)O)NC1=O)NC(=O)[C@H](C)NC(=O)[C@H](CC(=O)O)NC2=O (stereo partly drawn) [I-142, Ac-PL3-Asp-Ala-B5-Asp-Glu-Ala-Ala-Phe-Val-S8-Phe-6F1NapA-Gln-NH2] | – | 2.18 |

The remaining lines, values ahead:

| CHI Log D | chromatographic logD | Compound |
| --- | --- | --- |
| 1.219 | – | CC(=O)N[C@@H](Cc1ccccc1)C(=O)N[C@@H](CC(=O)O)C(=O)N[C@@H](C)C(=O)N[C@]1(C)CCCN(C)C(=O)OCC=CCCCC[C@@](C)(C(=O)N[C@@H](Cc2ccccc2)C(=O)N[C@@H](Cc2c[nH]c3ccccc23)C(=O)N[C@@H](CCC(N)=O)C(N)=O)NC(=O)[C@H](C(C)C)NC(=O)[C@H](Cc2ccccc2)NC(=O)[C@H](C)NC(=O)[C@H](C)NC(=O)[C@H](CC(=O)O)NC(=O)[C@H](CC(=O)O)NC1=O [I-28, Ac-Phe-Asp-Ala-ReN-Asp-Asp-Ala-Ala-Phe-Val-S6-Phe-Trp-Gln-NH2] |
| – | 1.25 | CC(=O)N[C@@H](Cc1ccccc1)C(=O)N[C@@H](CC(=O)O)C(=O)N[C@@H](C)C(=O)N[C@]1(C)CCCCC=CCOC(=O)N(C)CCC[C@@](C)(C(=O)N[C@@H](Cc2ccccc2)C(=O)N[C@@H](Cc2c[nH]c3ccccc23)C(=O)N[C@@H](CCC(N)=O)C(N)=O)NC(=O)[C@H](C(C)C)NC(=O)[C@H](Cc2ccccc2)NC(=O)[C@H](C)NC(=O)[C@H](C)NC(=O)[C@H](CC(=O)O)NC(=O)[C@H](CC(=O)O)NC1=O [I-26, Ac-Phe-Asp-Ala-R6-Asp-Asp-Ala-Ala-Phe-Val-SeN-Phe-Trp-Gln-NH2] |
| – | 1.65 | CC(=O)N[C@@H](Cc1ccccc1)C(=O)N[C@@H](CC(=O)O)C(=O)N[C@@H](C)C(=O)N[C@]1(C)CCCCCCC=CCOC(=O)N2CC[C@@](C(=O)N[C@@H](Cc3ccccc3)C(=O)N[C@@H](Cc3c[nH]c4ccccc34)C(=O)N[C@@H](CCC(N)=O)C(N)=O)(C2)NC(=O)[C@H](C(C)C)NC(=O)[C@H](Cc2ccccc2)NC(=O)[C@H](C)NC(=O)[C@H](C)NC(=O)[C@H](Cc2cccnc2)NC(=O)[C@H](CC(=O)O)NC1=O (single isomer, unassigned) [I-9, Ac-Phe-Asp-Ala-R8-Asp-3PyrA-Ala-Ala-Phe-Val-PyrS-Phe-Trp-Gln-NH2] |
| – | 1.28 | CC(=O)N[C@@H](Cc1ccccc1)C(=O)N[C@@H](CC(=O)O)C(=O)N[C@]1(C)CCCCCCC=CCCC[C@@](C)(C(=O)N[C@@H](C)C(=O)N[C@@H](Cc2ccccc2)C(=O)N[C@@H](Cc2c[nH]c3ccccc23)C(=O)N[C@@H](CCC(N)=O)C(N)=O)NC(=O)[C@H](Cc2ccccc2)NC(=O)[C@H](C)NC(=O)[C@H](C)NC(=O)[C@H](CC(=O)O)NC(=O)[C@H](CC(=O)O)NC(=O)[C@H](C)NC1=O (single isomer, unassigned) [I-47, Ac-Phe-Asp-R8-Ala-Asp-Asp-Ala-Ala-Phe-S5-Ala-Phe-Trp-Gln-NH2] |
| 1.353 | – | CC(=O)N[C@@H](Cc1ccccc1)C(=O)N[C@@H](CC(=O)O)C(=O)N[C@@H](C)C(=O)N[C@]1(C)CCCCCCC=CCOC(=O)N2CC[C@@](C(=O)N[C@@H](Cc3ccccc3)C(=O)N[C@@H](Cc3c[nH]c4ccccc34)C(=O)N[C@@H](CCC(N)=O)C(N)=O)(C2)NC(=O)[C@H](C(C)C)NC(=O)[C@H](Cc2ccccc2)NC(=O)[C@H](C)NC(=O)[C@H](C)NC(=O)[C@H](CCC(=O)O)NC(=O)[C@H](CC(=O)O)NC1=O [I-4, Ac-Phe-Asp-Ala-R8-Asp-Glu-Ala-Ala-Phe-Val-PyrS-Phe-Trp-Gln-NH2] |
| 1.343 | – | CC(=O)N[C@@H](Cc1ccccc1)C(=O)N[C@@H](CC(=O)O)C(=O)N[C@@H](C)C(=O)N[C@]1(C)CCCCCCC=CCOC(=O)N2CC[C@@](C(=O)N[C@@H](Cc3ccccc3)C(=O)N[C@@H](Cc3c[nH]c4ccccc34)C(=O)N[C@@H](CCC(N)=O)C(N)=O)(C2)NC(=O)[C@H](C(C)C)NC(=O)[C@H](CC2CCCC2)NC(=O)[C@H](C)NC(=O)[C@H](C)NC(=O)[C@H](CC(=O)O)NC(=O)[C@H](CC(=O)O)NC1=O (single isomer, unassigned) [I-96, Ac-Phe-Asp-Ala-R8-Asp-Asp-Ala-Ala-CypA-Val-PyrS-Phe-Trp-Gln-NH2] |
| 1.239 | – | CC(=O)N[C@@H](Cc1ccccc1)C(=O)N[C@@H](CC(=O)O)C(=O)N[C@@H](C)C(=O)N[C@]1(C)CCCCCCC=CCOC(=O)N2CC[C@@](C(=O)N[C@@H](Cc3ccccc3)C(=O)N[C@@H](Cc3c[nH]c4ccccc34)C(=O)N[C@@H](CCC(N)=O)C(N)=O)(C2)NC(=O)[C@H](C(C)C)NC(=O)[C@H](Cc2cccnc2)NC(=O)[C@H](C)NC(=O)[C@H](C)NC(=O)[C@H](CC(=O)O)NC(=O)[C@H](CC(=O)O)NC1=O (single isomer, unassigned) [I-88, Ac-Phe-Asp-Ala-R8-Asp-Asp-Ala-Ala-3PyrA-Val-PyrS-Phe-Trp-Gln-NH2] |
| 2.145 | – | CC(=O)N[C@@H](Cc1ccccc1)C(=O)N[C@@H](CC(=O)O)C(=O)N[C@@H](C)C(=O)N[C@]1(C)CCCCCCC=CCOC(=O)N2CC[C@@](C(=O)N[C@@H](Cc3ccccc3)C(=O)N[C@@H](Cc3c[nH]c4ccccc34)C(=O)N[C@@H](CCC(N)=O)C(N)=O)(C2)NC(=O)[C@H](C(C)C)NC(=O)[C@H](Cc2ccccc2)NC(=O)[C@H](C)NC(=O)[C@H](C)NC(=O)[C@H](Cc2ccc3ccccc3c2)NC(=O)[C@H](CC(=O)O)NC1=O [I-115, Ac-Phe-Asp-Ala-R8-Asp-2NapA-Ala-Ala-Phe-Val-PyrS-Phe-Trp-Gln-NH2] |
| – | 1.5 | CC(=O)N[C@@H](Cc1ccccc1)C(=O)N[C@@H](CC(=O)O)C(=O)N[C@@H](C)C(=O)N[C@]1(C)CCCCCCC=CCOC(=O)N2CC[C@@](C(=O)N[C@@H](Cc3ccccc3)C(=O)N[C@@H](Cc3c[nH]c4ccccc34)C(=O)N[C@@H](CCC(N)=O)C(N)=O)(C2)NC(=O)[C@H](C(C)C)NC(=O)[C@H](Cc2ccccc2)NC(=O)[C@H](C)NC(=O)[C@H](C)NC(=O)[C@H](CCC(N)=O)NC(=O)[C@H](CC(=O)O)NC1=O (single isomer, unassigned) [I-58, Ac-Phe-Asp-Ala-R8-Asp-Gln-Ala-Ala-Phe-Val-PyrS-Phe-Trp-Gln-NH2] |
| – | 1.2 | CCCC[C@@H]1NC(=O)[C@H](C)NC(=O)[C@H](C)NC(=O)[C@H](CC(=O)O)NC(=O)[C@H](CC(=O)O)NC(=O)[C@](C)(NC(=O)[C@H](C)NC(=O)[C@H](CC(=O)O)NC(=O)[C@H](Cc2ccccc2)NC(C)=O)CCCCCCC=CCOC(=O)N2CC[C@@](C(=O)N[C@@H](Cc3ccccc3)C(=O)N[C@@H](Cc3c[nH]c4ccccc34)C(=O)N[C@@H](CCC(N)=O)C(N)=O)(C2)NC(=O)[C@H](C(C)C)NC1=O [I-76, Ac-Phe-Asp-Ala-R8-Asp-Asp-Ala-Ala-nLeu-Val-PyrS-Phe-Trp-Gln-NH2] |
